Test results reported in publication PMC2741015 (Molecular and biochemical parasitology, 2009).

Legend:
[1] = biological target: T1, P. falciparum SHMT (PfSHMT) (Plasmodium falciparum, UniProt Q8I566); experiment: PfSHMT activity inhibition by antifolates; assay type: biochemical
T1 sequence (Q8I566 1-442): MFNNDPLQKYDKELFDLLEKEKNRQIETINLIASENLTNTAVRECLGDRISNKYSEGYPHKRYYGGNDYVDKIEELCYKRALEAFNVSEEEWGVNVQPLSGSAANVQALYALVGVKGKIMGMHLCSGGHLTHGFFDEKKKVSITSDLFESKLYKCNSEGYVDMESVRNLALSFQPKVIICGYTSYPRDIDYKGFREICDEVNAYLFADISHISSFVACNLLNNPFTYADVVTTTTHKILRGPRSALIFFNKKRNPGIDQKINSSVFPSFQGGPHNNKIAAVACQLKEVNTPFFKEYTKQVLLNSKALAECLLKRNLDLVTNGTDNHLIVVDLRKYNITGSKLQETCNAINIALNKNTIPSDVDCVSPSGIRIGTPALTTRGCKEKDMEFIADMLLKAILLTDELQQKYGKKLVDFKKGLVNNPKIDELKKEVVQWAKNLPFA

[2] = biological target: T1, P. falciparum SHMT (PfSHMT); experiment: Michaelis-Menten constants of PfSHMT substrates; assay type: biochemical
[3] = biological target: P. falciparum SHMT apo enzyme (Plasmodium falciparum, UniProt Q8I566); experiment: Activity of apo PfSHMT with and without PLP; assay type: biochemical; conditions: apo enzyme with vs without PLP (Fig 4A)
[4] = biological target: PfSHMT protein interaction with SHMT or DHFR-TS mRNA (Plasmodium falciparum, UniProt Q8I566); experiment: RNA-protein interaction gel shift, competition with substrates; assay type: binding; conditions: 500 nM SHMT protein, 0.5 nM labeled RNA; 125 μM PLP, 3 mM serine, 3 mM THF
SEC = biological target: the molecule itself; experiment: SEC

In the case of `CN(Cc1cnc2nc(N)nc(N)c2n1)c1ccc(C(=O)N[C@@H](CCC(=O)O)C(=O)O)cc1` [methotrexate], the IC50 [1] is reported as greater than 500 µM.

With `Nc1nc2[nH]cc(CCc3ccc(C(=O)N[C@@H](CCC(=O)O)C(=O)O)cc3)c2c(=O)[nH]1` [pemetrexed] the IC50 [1] was greater than 500 µM.

Molecule tetrahydrofolate [THF] has a Vmax ([2]; from velocity vs. substrate fit) of 188.5 pmol/min and a Km ([2]; read-out: Km, P falciparum, Table 1, P. falciparum SHMT) of 3.4 mM.

In the case of `Cc1nc2ccc(CN(C)c3ccc(C(=O)N[C@@H](CCC(=O)O)C(=O)O)s3)cc2c(=O)[nH]1` [D1694], the IC50 [1] is reported as greater than 500 µM.

Work on `CCc1nc(N)nc(N)c1-c1ccc(Cl)cc1` [pyrimethamine] yielded an IC50 [1] greater than 500 µM.

In the case of `Cc1ncc(COP(=O)(O)O)c(C=O)c1O` [PLP, pyridoxal 5’-phosphate], the “Enzyme activity of apo enzyme with PLP added to the reaction” value [3] is reported as “increased by more than ten fold” and the “Effect on PfSHMT protein interaction with SHMT or DHFR-TS mRNA” value [4] is reported as “not abrogated”.

`N[C@@H](CO)C(=O)O` [serine] was tested, and the “Effect on PfSHMT protein interaction with SHMT or DHFR-TS mRNA” value [4] was “not abrogated”.

B1: Plasmodium falciparum serine hydroxymethyltransferase with an N-terminal histidine tag (enzyme, Plasmodium falciparum (strain 3D7), UniProt Q8I566 1-442, looked up)
chain: T1 sequence (Q8I566 1-442)
For B1, the “stoichiometry N” value (SEC) was 2.
